According to article PMC12064818, “A general assay platform to study protein pharmacology using ligand-dependent structural dynamics” (Nature Communications, 2025):
Read-outs that look alike come from different tables or passages of the source.

How the values were obtained:
[1] = target: T1, FLuc-C-HiBiT (firefly luciferase) (Photinus pyralis, UniProt P08659, form not given/L550V); experiment: SDR assay, FLuc-C-HiBiT; details: for pSDR50, SDR (+ ATP) / pSDR50, SDR (-ATP) / EC50: FLuc-C-HiBiT qHTS; for Pearson r (SDR+ATP vs. E): correlation of SDR (+ATP) with the FLuc enzymatic assay (E); for Pearson r (SDR-ATP vs. E): correlation of SDR (-ATP) with the FLuc enzymatic assay (E)
T1 sequence (P08659 2-550 L550V, form open): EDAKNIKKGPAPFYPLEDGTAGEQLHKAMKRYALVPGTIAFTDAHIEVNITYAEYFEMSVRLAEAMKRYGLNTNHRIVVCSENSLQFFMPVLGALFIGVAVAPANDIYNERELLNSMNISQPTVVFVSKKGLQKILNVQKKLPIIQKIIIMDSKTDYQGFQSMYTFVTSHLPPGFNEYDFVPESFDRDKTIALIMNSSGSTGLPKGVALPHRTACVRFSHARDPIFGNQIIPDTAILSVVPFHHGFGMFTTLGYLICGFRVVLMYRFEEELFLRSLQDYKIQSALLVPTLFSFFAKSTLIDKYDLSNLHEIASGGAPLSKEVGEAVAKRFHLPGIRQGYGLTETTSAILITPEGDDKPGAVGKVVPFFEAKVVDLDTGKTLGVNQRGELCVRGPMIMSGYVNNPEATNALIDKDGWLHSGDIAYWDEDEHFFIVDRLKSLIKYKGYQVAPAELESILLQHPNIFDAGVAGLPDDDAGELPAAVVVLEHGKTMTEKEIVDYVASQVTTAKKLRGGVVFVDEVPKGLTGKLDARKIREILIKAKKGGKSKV

[2] = target: T1, FLuc-C-HiBiT (firefly luciferase); experiment: Firefly luciferase (FLuc) enzymatic luminescence assay, FLuc-C-HiBiT; format: biochemical; details: FLuc-C-HiBiT qHTS, FLuc enzymatic assay; for IC50: read-out: IC50, FLuc E
Experimental: The enzyme activity of FLuc-N-HiBiT, FLuc-C-HiBiT, and FLuc-C-NLuc was measured similar to P. pyralis firefly luciferase (FLuc) as previously described. […] Compounds and controls were added to each plate as described in Supplementary Data 8 with a Hornet pintool system (Wako Automation). Compounds were incubated with respective enzymes for 30–60 min at room temperature protected from light and covered by solid metal lid to prevent evaporation. […] Luciferin was incubated with FLuc enzyme for 5 min before FLuc activity was then measured on a ViewLux CCD imager (PerkinElmer), with exposure times up to ten seconds with medium to high gain settings. Data were normalized to average no enzyme control as 100% enzyme inhibition and average DMSO neutral control. See Supplementary Table 4 for additional details.
Supplementary Table 4. Protocol for Firefly luciferase (FLuc) and NanoLuc (NLuc) enzymatic
Supplementary Table 4: Protocol for Firefly luciferase (FLuc) and NanoLuc (NLuc) enzym atic lum inescence assay
Firefly luciferase (FLuc) enzym atic lum inescence assay
Sequence Param eter Value Description
No enzym e control (colum n 1) and enzym e solution (1- 10 nM FLuc enzym e) in FLuc assay
1 Reagent 4 µLbuffer; white/solid bottom , m edium bind, high base plates (Greiner), dispensed with BioRaptr
com pounds transferred to respective colum ns with Pintool
2b Test Com pounds 23 nLconcentration range) in colum ns 5- 48; com pounds transferred to respective wells with
3 Incubation 30 m in Incubate enzym e + com pounds at am bient tem p for 30 m in, protected from light
4 Reagent 3 µLAdd 3 µL of D-luciferin substrate solution to each well (final concentration 10 µM); dispensed
5 Detector ViewLux Read plate lum inescence (Exposure = 1- 10 sec; Gain = Medium -high; Speed = Slow;
Dispensing solution was diluted in 1X PBS, pH 7.4. […]

[3] = read-out: SDR50, SDR (+ ATP), SDR assay with ATP
[4] = read-out: SDR50, SDR (-ATP), SDR assay without ATP

| pSDR50, SDR (+ ATP) ([1]; SDR assay with ATP) | pSDR50, SDR (-ATP) ([1]; SDR assay without ATP) | Pearson r (SDR+ATP vs. E) [1] | Pearson r (SDR-ATP vs. E) [1] | EC50 [1, 3] | EC50 [1, 4] | pIC50, FLuc E [2] | IC50 [2] | Structure (SMILES) |
| --- | --- | --- | --- | --- | --- | --- | --- | --- |
| 5.705 | 5.705 | 0.941 | 0.919 | 1970 nM | 1970 nM | 6.255 | 556 nM | CSc1ccc(/C=C/c2nc3ccccc3n2[S+](=O)([O-])c2cccc(Cl)c2)cc1 [NCGC00108250-01] |
| 5.355 | 5.105 | 0.917 | 0.903 | 4420 nM | 7850 nM | 6.155 | 700 nM | CSc1ccc(/C=C/c2nc3ccccc3n2[S+](=O)([O-])c2ccc(Br)cc2)cc1 [NCGC00108248-01] |
